Source: patent US7951956B2, “Benzoimidazole compound capable of inhibiting prostaglandin D synthetase” (Taiho Pharmaceuticals Co., Ltd., priority 2005, dated 2011)
pIC50: −log10 of the molar value.

How the values were obtained:
[1] = target: human hematopoietic synthase (Homo sapiens, UniProt O60760); assay: Hematopoietic synthase inhibitory activity (Experiment 1); assay type: biochemical; conditions: [14C] prostaglandin H2 10 μM, preincubated at 25° C. for 5 minutes, 1 minute reaction; read-out: Concentration of Pharmaceutical Compound Required to Inhibit 50% of Hematopoietic Synthase
Sequence of human hematopoietic synthase (O60760 whole entry): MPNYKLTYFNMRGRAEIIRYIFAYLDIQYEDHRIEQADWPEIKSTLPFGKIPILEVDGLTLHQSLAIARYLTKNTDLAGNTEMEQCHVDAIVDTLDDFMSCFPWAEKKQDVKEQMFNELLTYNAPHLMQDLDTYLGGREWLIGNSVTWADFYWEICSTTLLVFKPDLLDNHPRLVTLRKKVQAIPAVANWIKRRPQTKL
Protocol: Experiment 1 was carried out according to the method of Urade, Y. et al. (J. Biol. Chem. 262, 3820-3825, (1987)). More specifically, the reaction mixture (49 μL); 100 mM Tris-HCl (pH 8.0), 1 mM reduced glutathione, 0.1 mg/mL γ-globulin, and human hematopoietic synthase (quantum sufficient), and a test compound (final concentration: 0.01-100 μM) were preincubated at 25° C. for 5 minutes. In place of the test compound, a DMSO solution (final concentration: 1%) was used in the solvent control group (Control Group). Subsequently, 1 μL of [^14C] prostaglandin H2 (final concentration: 10 μM) was added to start the reaction. One minute after the start of the reaction, 250 μL of a reaction stopper solution (diethylether/methanol/1M citric acid (30/4/1) cooled to −20° C. was added to stop the reaction.
Thereafter, 50 μL of the upper layer portion (organic solvent phase) was applied to a TLC plate and developed at −20° C. for 45 minutes (developer: diethylether/methanol/acetic acid (capacity ratio=90/2/1)). After drying the plate, the plate was exposed to an imaging plate for 1 to 24 hours, and the radioactivity corresponding to prostaglandin D2 was analyzed using an image analyzer (product of FUJIFILM Corporation). The area (%) occupied by the prostaglandin D2 band per lane was calculated, and the concentration of the test compound required to inhibit 50% of the hematopoietic synthase (IC50 value) was calculated by comparison with the Control group in each experiment.

SMILES	melting point [°C]	pIC50 [1]
O=C(c1ccccc1)c1ccc2[nH]c(-c3ccc(P(=O)(O)O)o3)nc2c1 (hydrate or solvate) [Comparative Example 3, 5-Benzophenone-2-(2-phosphono-5-furanyl)benzimidazole dihydrate]	224 to 229	–
Cc1coc(C)c1-c1nc2cc(C(=O)c3ccccc3)ccc2[nH]1 [Compound 1, 5-Benzoyl-2-(2,4-dimethylfuran-3-yl)-benzimidazole]	203 to 208	6.10
Cc1oc(C(N)=O)c(C)c1-c1nc2cc(C(=O)c3ccccc3)ccc2[nH]1 [Compound 2, 4-(5-Benzoylbenzimidazol-2-yl)-3,5-dimethylfuran-2-carboxamide]	143 to 146	6.56
O=C(c1ccccc1)c1ccc2[nH]c(-c3c[nH]c(C(=O)O)c3)nc2c1 [Compound 5, 4-(5-Benzoylbenzimidazol-2-yl)-pyrrole-2-carboxylic acid]	239 to 241	5.84
O=C(c1ccccc1)c1ccc2[nH]c(-c3c[nH]c(C(=O)N4CCCC4)c3)nc2c1 [Compound 6, ((4-(5-Benzoylbenzimidazol-2-yl)-pyrrol-2-yl)-carbonyl)pyrrolidine]	160 to 162	5.76
Cc1c[nH]c(C)c1-c1nc2cc(C(=O)c3ccccc3)ccc2[nH]1 [Compound 7, 2-(2,4-Dimethyl-pyrrol-3-yl)-5-benzoylbenzimidazole]	207 to 214	6.23
Cc1[nH]c(C=O)c(C)c1-c1nc2cc(C(=O)c3ccccc3)ccc2[nH]1 [Compound 8, 2-(2-Formyl-3,5-dimethyl-pyrrol-4-yl)-5-benzoylbenzimidazole]	253 to 255	–
Cc1[nH]c(/C=C/C#N)c(C)c1-c1nc2cc(C(=O)c3ccccc3)ccc2[nH]1 [Compound 9, 2-(2-Acrylonitrile-3,5-dimethyl-pyrrol-4-yl)-5-benzoylbenzimidazole]	201 to 203	6.96
Cc1[nH]c(C(=O)NCCC(=O)O)c(C)c1-c1nc2cc(C(=O)c3ccccc3)ccc2[nH]1 [Compound 21, N-(2-Carboxyethyl)-4-(5-benzoylbenzimidazol-2-yl)-3,5-dimethylpyrrole-2-carboxamide]	256 to 258	6.52
Cc1[nH]c(C(=O)N2CCC(C(=O)O)CC2)c(C)c1-c1nc2cc(C(=O)c3ccccc3)ccc2[nH]1 [Compound 45, ((4-(5-Benzoylbenzimidazol-2-yl)-3,5-dimethylpyrrol-2-yl)-carbonyl)piperidine-4-carboxylic acid]	267 to 271	6.19
O=C(c1ccccc1)c1ccc2nc(-c3ccc[nH]3)[nH]c2c1 [Compound 51, 5-Benzoyl-2-(pyrrol-2-yl)-benzimidazole]	128 to 133	–
CONC(=O)c1[nH]c(C)c(-c2nc3cc(Oc4ccccc4)ccc3[nH]2)c1C [Compound 73, N-(Methoxy)-4-(5-phenoxybenzimidazole-2-yl)-3,5-dimethylpyrrole-2-carboxamide]	–	6.62
CON(C)C(=O)c1[nH]c(C)c(-c2nc3cc(Oc4ccccc4)ccc3[nH]2)c1C [Compound 74, (N-Methoxy-N-methyl)-4-(5-phenoxybenzimidazole-2-yl)-3,5-dimethylpyrrole-2-carboxamide]	–	6.58
Cc1[nH]c(C#N)c(C)c1-c1nc2cc(Oc3ccccc3)ccc2[nH]1 [Compound 75, 2-(2-Cyano-3,5-dimethylpyrrol-4-yl)-5-phenoxybenzimidazole]	–	6.66
Cc1oc(C(N)=O)c(C)c1-c1nc2cc(Oc3ccccc3)ccc2[nH]1 [Compound 76, 4-(5-Phenoxybenzimidazole-2-yl)-3,5-dimethylfuran-2-carboxamide]	–	6.96
c1ccc(C(OC2CCN(CCCc3nnn[nH]3)CC2)c2ccccc2)cc1 [HQL-79, 4-benzhydryloxy-1-((3-(1H-tetrazol-5-yl)-propyl))piperidine, reference compound]	–	4.61
